Measured values published in PMC9000871, “Rhodamine 101 Conjugates of Triterpenoic Amides Are of Comparable Cytotoxicity as Their Rhodamine B Analogs” (Molecules, 2022).
Counter-ions that a name gives are not always drawn.

Assays:
[1] = test system: A375 (melanoma); assay: SRB cytotoxicity assay, A375; assay type: cell-based, human; conditions: Homo sapiens, A-375, 72 h, 72 h of treatment, mean ± standard mean error
Excerpt: (§1) The cell lines were obtained from Department of Oncology (Martin-Luther-University Halle Wittenberg; they were bought from ATCC; A 375 (CRL-1619), HT29 (HTB-38), MCF7 (HTM-22), A2780 (HTP-77), FaDu (HTP-43), NIH 3T3 (CRL-1658), HEK-293 (CRL-1573)). Cultures were maintained as monolayers in RPMI 1640 medium with L-glutamine (Capricorn Scientific GmbH, Ebsdorfergrund, Germany) supplemented with 10% heat inactivated fetal bovine serum (Sigma-Aldrich Chemie GmbH, Steinheim, Germany) and penicillin/streptomycin (1%, Capricorn Scientific GmbH, Ebsdorfergrund, Germany) at 37 °C in a humidified atmosphere with 5% CO2. The cytotoxicity of the compounds was evaluated using the sulforhodamine-B (Kiton-Red S, ABCR) micro culture colorimetric assay using confluent cells in 96-well plates with the seeding of the cells on day 0 applying appropriate cell densities to prevent confluence of the cells during the period of the experiment. On day 1, the cells were treated with six different concentrations (1, 3, 7, 12, 20, and 30 μM); thereby, the final concentration of DMSO was always <0.5%, generally regarded as non-toxic to the cells. On day 4, the supernatant medium was discarded; the cells were fixed with 10% trichloroacetic acid. After another day at 4 °C, the cells were washed in a strip washer and dyed with the SRB solution (100 μL, 0.4% in 1% acetic acid) for about 20 min to be followed by washing of the plates (four times, 1% acetic acid) and air-drying overnight. Furthermore, tris base solution (200 μL, 10 mM) was added to each well and absorbance was measured at λ = 570 nm employing a reader (96 wells, Tecan Spectra, Crailsheim, Germany). The EC50 values were averaged from three independent experiments performed each in triplicate calculated from semi logarithmic dose response curves applying a non-linear four-parameter Hills-slope equation (GraphPad Prism5; variables top and bottom were set to 100 and 0, respectively).

[2] = test system: NIH 3T3 (fibroblasts), non-malignant; assay: SRB cytotoxicity assay, NIH 3T3; assay type: cell-based; conditions: Mus musculus, NIH3T3, 72 h, 72 h of treatment, mean ± standard mean error
Excerpt: as §1

[3] = test system: HT29 (colon adenocarcinoma); assay: SRB cytotoxicity assay, HT29; assay type: cell-based, human; conditions: Homo sapiens, HT-29, 72 h, 72 h of treatment, mean ± standard mean error
Excerpt: as §1

[4] = test system: MCF-7 (breast adenocarcinoma); assay: SRB cytotoxicity assay, MCF-7; assay type: cell-based; conditions: Homo sapiens, MCF7, 72 h of treatment, mean ± standard mean error
Excerpt: as §1

[5] = test system: A2780 (ovarian carcinoma); assay: SRB cytotoxicity assay, A2780; assay type: cell-based; conditions: Homo sapiens, 72 h of treatment, mean ± standard mean error
Excerpt: as §1

| SMILES | melting point | EC50 [1] | EC50 [2] | EC50 [3] | EC50 [4] | EC50 [5] |
| --- | --- | --- | --- | --- | --- | --- |
| CC(=O)O[C@H]1CC[C@@]2(C)C(CC[C@]3(C)C2CC=C2C4CC(C)(C)CC[C@]4(C(=O)N4CCCN(C(=O)c5ccccc5C5=c6cc7c8c(c6Oc6c5cc5c9c6CCCN9CCC5)CCC[N+]=8CCC7)CC4)CC[C@]23C)C1(C)C (stereo partly drawn) (as salt: chloride) [compound 26] | > 300 °C | – | – | – | – | – |
| CCN(CC)c1ccc2c(-c3ccccc3C(=O)N3CCCN(C(=O)[C@]45CC[C@@H](C(C)=O)C4C4CCC6[C@@]7(C)CC[C@H](OC(C)=O)C(C)(C)C7CC[C@@]6(C)[C@]4(C)CC5)CC3)c3ccc(=[N+](CC)CC)cc-3oc2c1 (stereo partly drawn) [compound 20, 9-[2-[[4-(3β-Acetyloxy-20,28-dioxo-30-norlupan-28-yl)-1-homopiperazinyl]carbonyl]phenyl]-3,6-bis(diethylamino)-xanthylium chloride] | – | 240 ± 17 nM | 340 ± 56 nM | 300 ± 27 nM | 150 ± 50 nM | 120 ± 18 nM |
| CC(=O)O[C@H]1CC[C@@]2(C)C(CC[C@]3(C)C2CCC2C4[C@H](C(C)=O)CC[C@]4(C(=O)N4CCCN(C(=O)c5ccccc5C5=c6cc7c8c(c6Oc6c5cc5c9c6CCCN9CCC5)CCC[N+]=8CCC7)CC4)CC[C@]23C)C1(C)C (stereo partly drawn) (as salt: chloride) [compound 28] | > 300 °C | – | – | – | – | – |
| CCN(CC)c1ccc2c(-c3ccccc3C(=O)N3CCCN(C(=O)[C@]45CCC(C)(C)CC4C4=CCC6[C@@]7(C)CC[C@H](OC(C)=O)C(C)(C)C7CC[C@@]6(C)[C@]4(C)CC5)CC3)c3ccc(=[N+](CC)CC)cc-3oc2c1 (stereo partly drawn) (as salt: chloride) (hydrate or solvate) [compound 18, 9-[2-[[4-(3β-Acetyloxy-28-oxo-olean-12-en-28-yl]-1-homopiperazinyl]carbonyl]phenyl]-3,6-bis(diethylamino)-xanthylium chloride] | 235 to 241 °C | – | – | – | – | – |
| C=C(C)[C@@H]1CC[C@]2(C(=O)N3CCNCC3)CC[C@]3(C)C(CCC4[C@@]5(C)CC[C@H](OC(C)=O)C(C)(C)C5CC[C@]43C)C12 (stereo partly drawn) [compound 5, 3β-Acetyloxy-28-(1-piperazinyl)-lup-20(29)en-28-one] | – | 1500 ± 300 nM | 900 ± 100 nM | 1000 ± 100 nM | 1400 ± 100 nM | 1900 ± 100 nM |
| CCN(CC)c1ccc2c(-c3ccccc3C(=O)N3CCN(C(=O)[C@]45CCC(C)(C)CC4C4=CCC6[C@@]7(C)CC[C@H](OC(C)=O)C(C)(C)C7CC[C@@]6(C)[C@]4(C)CC5)CC3)c3ccc(=[N+](CC)CC)cc-3oc2c1 (stereo partly drawn) (as salt: chloride) [compound 14, 9-[2-[[4-(3β-Acetyloxy-28-oxo-olean-12-en-28-yl)-1-piperazinyl]carbonyl]phenyl]-3,6-bis(diethylamino)-xanthylium chloride] | 246 to 252 °C | – | – | – | – | – |
| CCN(CC)c1ccc2c(-c3ccccc3C(=O)N3CCN(C(=O)[C@]45CC[C@@H](C(C)=O)C4C4CCC6[C@@]7(C)CC[C@H](OC(C)=O)C(C)(C)C7CC[C@@]6(C)[C@]4(C)CC5)CC3)c3ccc(=[N+](CC)CC)cc-3oc2c1 (stereo partly drawn) [compound 16, 9-[2-[[4-(3β-Acetyloxy-20,28-dioxo-30-norlupan-28-yl)-1-piperazinyl]carbonyl]phenyl]-3,6-bis(diethylamino)-xanthylium chloride] | – | 80 ± 30 nM | 171 ± 6 nM | 99 ± 16 nM | 70 ± 2 nM | 36 ± 1 nM |
| CCN(CC)c1ccc2c(-c3ccccc3C(=O)N3CCN(C(=O)[C@]45CC[C@@H](C)[C@H](C)C4C4=CCC6[C@@]7(C)CC[C@H](OC(C)=O)C(C)(C)C7CC[C@@]6(C)[C@]4(C)CC5)CC3)c3ccc(=[N+](CC)CC)cc-3oc2c1 (stereo partly drawn) [compound 15, 9-[2-[[4-(3β-Acetyloxy-28-oxo-ursan-12-en-28-yl)-1-piperazinyl]carbonyl]phenyl]-3,6-bis(diethylamino)-xanthylium chloride] | – | 40 ± 20 nM | 137 ± 9 nM | 83 ± 7 nM | 75 ± 5 nM | 38 ± 2 nM |
| CC(=O)O[C@H]1CC[C@@]2(C)C(CC[C@]3(C)C2CC=C2C4[C@@H](C)[C@H](C)CC[C@]4(C(=O)N4CCCN(C(=O)c5ccccc5C5=c6cc7c8c(c6Oc6c5cc5c9c6CCCN9CCC5)CCC[N+]=8CCC7)CC4)CC[C@]23C)C1(C)C (stereo partly drawn) (as salt: chloride) [compound 27] | > 300 °C | – | – | – | – | – |
| CCN(CC)c1ccc2c(-c3ccccc3C(=O)N3CCCN(C(=O)[C@]45CCC(C)(C)CC4C4=CCC6[C@@]7(C)CC[C@H](OC(C)=O)C(C)(C)C7CC[C@@]6(C)[C@]4(C)CC5)CC3)c3ccc(=[N+](CC)CC)cc-3oc2c1 (stereo partly drawn) [compound 18, 9-[2-[[4-(3β-Acetyloxy-28-oxo-olean-12-en-28-yl]-1-homopiperazinyl]carbonyl]phenyl]-3,6-bis(diethylamino)-xanthylium chloride] | – | 40 ± 10 nM | 140 ± 20 nM | 40 ± 10 nM | 30 ± 4 nM | 20 ± 3 nM |
| CCN(CC)c1ccc2c(-c3ccccc3C(=O)N3CCCN(C(=O)[C@]45CC[C@@H](C(C)=O)C4C4CCC6[C@@]7(C)CC[C@H](OC(C)=O)C(C)(C)C7CC[C@@]6(C)[C@]4(C)CC5)CC3)c3ccc(=[N+](CC)CC)cc-3oc2c1 (stereo partly drawn) (as salt: chloride) [compound 20, 9-[2-[[4-(3β-Acetyloxy-20,28-dioxo-30-norlupan-28-yl)-1-homopiperazinyl]carbonyl]phenyl]-3,6-bis(diethylamino)-xanthylium chloride] | 248 to 250 °C (dec.) | – | – | – | – | – |
| C=C(C)[C@@H]1CC[C@]2(C(=O)N3CCCN(C(=O)c4ccccc4-c4c5ccc(=[N+](CC)CC)cc-5oc5cc(N(CC)CC)ccc45)CC3)CC[C@]3(C)C(CCC4[C@@]5(C)CC[C@H](OC(C)=O)C(C)(C)C5CC[C@]43C)C12 (stereo partly drawn) (as salt: chloride) (hydrate or solvate) [compound 17, 9-[2-[[4-(3β-Acetyloxy-28-oxo-30-norlupan-28-yl)-1-homopiperazinyl]carbonyl]phenyl]-3,6-bis(diethylamino)-xanthylium chloride] | 261 to 266 °C | – | – | – | – | – |
| CCN(CC)c1ccc2c(-c3ccccc3C(=O)N3CCCN(C(=O)[C@]45CC[C@@H](C)[C@H](C)C4C4=CCC6[C@@]7(C)CC[C@H](OC(C)=O)C(C)(C)C7CC[C@@]6(C)[C@]4(C)CC5)CC3)c3ccc(=[N+](CC)CC)cc-3oc2c1 (stereo partly drawn) [compound 19, 9-[2-[[4-(3β-Acetyloxy-28-oxo-urs-12-en-28-yl]-1-homopiperazinyl]carbonyl]phenyl]-3,6-bis(diethylamino)-xanthylium chloride] | – | 510 ± 50 nM | 400 ± 30 nM | 500 ± 70 nM | 390 ± 40 nM | 450 ± 30 nM |
| C=C(C)[C@@H]1CC[C@]2(C(=O)N3CCCNCC3)CC[C@]3(C)C(CCC4[C@@]5(C)CC[C@H](OC(C)=O)C(C)(C)C5CC[C@]43C)C12 (stereo partly drawn) [compound 9, 3β-Acetyloxy-28-(1-homopiperazinyl)-lup-20(29)en-28-one] | – | 18700 ± 1600 nM | 18700 ± 1600 nM | 5100 ± 1100 nM | 10700 ± 1000 nM | 12000 ± 600 nM |
| CCN(CC)c1ccc2c(-c3ccccc3C(=O)N3CCN(C(=O)[C@]45CCC(C)(C)CC4C4=CCC6[C@@]7(C)CC[C@H](OC(C)=O)C(C)(C)C7CC[C@@]6(C)[C@]4(C)CC5)CC3)c3ccc(=[N+](CC)CC)cc-3oc2c1 (stereo partly drawn) [compound 14, 9-[2-[[4-(3β-Acetyloxy-28-oxo-olean-12-en-28-yl)-1-piperazinyl]carbonyl]phenyl]-3,6-bis(diethylamino)-xanthylium chloride] | – | 90 ± 10 nM | 137 ± 6 nM | 91 ± 10 nM | 62 ± 4 nM | 32 ± 1 nM |
| C=C(C)[C@@H]1CC[C@]2(C(=O)N3CCCN(C(=O)c4ccccc4-c4c5ccc(=[N+](CC)CC)cc-5oc5cc(N(CC)CC)ccc45)CC3)CC[C@]3(C)C(CCC4[C@@]5(C)CC[C@H](OC(C)=O)C(C)(C)C5CC[C@]43C)C12 (stereo partly drawn) [compound 17, 9-[2-[[4-(3β-Acetyloxy-28-oxo-30-norlupan-28-yl)-1-homopiperazinyl]carbonyl]phenyl]-3,6-bis(diethylamino)-xanthylium chloride] | – | 760 ± 90 nM | 330 ± 70 nM | 280 ± 10 nM | 220 ± 20 nM | 220 ± 10 nM |
| C=C(C)[C@@H]1CC[C@]2(C(=O)N3CCN(C(=O)c4ccccc4-c4c5ccc(=[N+](CC)CC)cc-5oc5cc(N(CC)CC)ccc45)CC3)CC[C@]3(C)C(CCC4[C@@]5(C)CC[C@H](OC(C)=O)C(C)(C)C5CC[C@]43C)C12 (stereo partly drawn) [compound 13, 9-[2-[[4-(3β-Acetyloxy-28-oxo-lup-20(29)en-28-yl)-1-piperazinyl]carbonyl]phenyl]-3,6-bis(diethylamino)-xanthylium chloride] | – | 90 ± 10 nM | 208 ± 34 nM | 151 ± 22 nM | 81 ± 5 nM | 50 ± 4 nM |
